{"source": "patent US9408828B2", "about": "“(+)-3′-angeloyloxy-4′-keto-3′,4′-dihydroseselin for treating inflammation” (Hong Kong Baptist University, priority 2014, dated 2016)", "system": "DSS-induced colitis", "assay": "Chronic DSS-induced colitis in mice (body weight, DAI, colon length, histology)", "format": "in vivo, C57BL/6 mice", "details": "sulfasalazine (positive control) 300 mg/kg/day for seven days", "source_text": "6-week-old male C57BL/6 mice weighing 18-20 g are purchased from the Laboratory Animal Services Center, the Chinese University of Hong Kong. The study protocols are approved by the committee for Care of Laboratory Animals in the School of Chinese Medicine at the Hong Kong Baptist University. The animals are divided into six groups (8-10 each group): control group (mice received drinking water and control diet), DSS-treated group (mice received 2.0% DSS in drinking and control diet), positive control group (mice received 2.0% DSS in drinking and ip, 300 mg/kg/day of sulfasalazine), Pd-Ib treatment groups will be given different dosed of Pd-Ib (mice received 2.0% DSS in drinking and i.p., 30, 60, or 120 mg/kg/day, respectively). As depicted in experiment design shown in FIG. 9, the mice are given tap water for 6 days, and then be divided into 6 groups. DSS is dissolved in distilled water at a concentration of 2% (w/v) and administered to the mice. The first day and the last day of DSS treatment are designated as day 7 and day 11, respectively. Mice are marked and checked daily for body weight. On day 12, body weight, stool consistency, and gross bleeding of each mouse are assessed, and animals showing body weight loss, diarrhea, and bleeding are selected for further analysis. All colitis mice are then interventions once daily for seven days, with eight mice in each group. The DSS model group is administered with tap water as negative control; while sulfasalazine is given as positive control (i.p., 300 mg/kg/day) and Pd-Ib treatment groups are given different doses of Pd-Ib (i.p., 30, 60, or 120 mg/kg/day, respectively). In parallel, a vehicle control group is also set up to receive drinking tap water without DSS throughout the entire experimental period. On day 19, after the mice are killed under anesthesia induced by pentobarbital sodium (i.p., 0.65 g/kg), the length of the large intestine is measured. All portions are stored at −80° C. for biochemical assays. The DAI is determined by scoring changes in the body weight, diarrhea, colon length, and bleeding. In brief, body weight, stool consistency, colon length and bleeding in the stool are monitored daily for determination of DAI. At the end of the experiment, mice are killed, and the colon is dissected from each mouse, and the length of which is measured from the ileocecal junction to the anal verge. The colons are opened longitudinally, gently washed with ice-cold PBS, fixed in 4% paraformaldehyde overnight, and embedded in paraffin. Five-micro-meter sections are stained with hematoxylin/eosin according to a standard procedure to evaluate colonic damage. Colitis is induced in all groups except the control group. Pd-Ib and sulfasalazine are administered to mice from day 6 to day 12. The change in body weight is taken as the difference between the body weight before induction of colitis and that immediately before sacrifice on day 13. The DAI score is determined by combining scores of (i) body weight loss, (ii) stool consistency, and (iii) stool bleeding. On day 13, the mice are sacrificed, and the colon lengths are measured. Data are expressed as mean±SEM, n=8 (^###p<0.001, compared with the control group; *p<0.05, **p<0.01, ***p<0.001, compared with DSS model group)."}
{"smiles": "O=C(O)c1cc(/N=N/c2ccc(S(=O)(=O)Nc3ccccn3)cc2)ccc1O", "note": "[sulfasalazine, Sulfasalazine, reference compound]", "values": [{"measurement": "histological manifestation of colon tissue sections", "value": "significantly decrease the damage of colon tissues"}]}
